Assay results from ChEMBL document CHEMBL5661943, “ASAP - In vitro antiviral effect” (2024).

What was measured:
[1] = system: dengue virus type 2; test: Functional assay to measure dose dependent changes in antiviral-drug inhibitory efficacy against Dengue virus type 2 New Guinea C in Vero E6 miRFP670 cells (cotreated with P-gp inhibitor, CP100356). Cells are treated with antiviral candidates that are serially diluted, following infection, cells are fixed. EC50 is reported via analysis of fluorescence intensity using high-content imager. The …; assay type: organism-based, Chlorocebus sabaeus, Vero C1008; conditions: for EC90: P-gp concentration 500 nM, P-gp inhibitor CP100356
[2] = system: Zika virus; test: Functional CPE-based assay to measure dose dependent changes in antiviral-drug inhibitory efficacy against Zika virus MR766 in Vero E6 miRFP670 cells (cotreated with P-gp inhibitor, CP100356). Cells are treated with antiviral candidates that are serially diluted. EC50 is reported via analysis of MTS assay as a readout of CPE. The assay has been performed by KU Leuven.; assay type: organism-based, Chlorocebus sabaeus, Vero C1008

Work on O=C(NCC(F)F)[C@H](Nc1ccc2c(c1)CNC2)c1cc(F)cc2[nH]ccc12 yielded an EC50 ([1]; Dengue virus, Vero C1008) greater than 50 µM, an EC90 ([1]; Dengue virus, Vero C1008, Maximum measured 207.16 %, Minimum measured 119.939 %) greater than 50 µM and an EC50 ([2]; Zika virus, Vero C1008) greater than 50 µM. It also gave an EC90 ([2]; Zika virus, Vero C1008, Baseline response 0 %, Hill slope 0.152, Maximum measured 3.288 %, Maximum response 100 %, Minimum measured 0.363 %, P-gp concentration 500 nM, R squared 0.104, P-gp inhibitor CP100356) greater than 50 µM.
Work on CCOCCNC(=O)[C@H](Nc1ccc2c(c1)CNC2)c1cc(Cl)cc2[nH]ncc12 yielded an EC50 ([1]; Dengue virus, Vero C1008) greater than 50 µM, an EC90 ([1]; Dengue virus, Vero C1008, Maximum measured 134.278 %, Minimum measured 95.519 %) greater than 50 µM and an EC50 ([2]; Zika virus, Vero C1008) of 39.6 µM. For the same molecule, the EC90 ([2]; Zika virus, Vero C1008, Baseline response 0 %, Hill slope 1.597, Maximum measured 58.987 %, Maximum response 100 %, Minimum measured -2.742 %, P-gp concentration 500 nM, R squared 0.989, P-gp inhibitor CP100356) was greater than 50 µM.
With COc1ccccc1-c1nc2c(C(=O)Nc3ccc4c(c3)CNC4)cc(F)cc2[nH]1 the EC50 ([1]; Dengue virus, Vero C1008) was greater than 12.5 µM, the EC90 ([1]; Dengue virus, Vero C1008, Baseline response 0 %, Hill slope -1.284, Maximum measured 263.72 %, Maximum response 267.598 %, Minimum measured 165.032 %, R squared 0.972) was greater than 12.5 µM and the EC50 ([2]; Zika virus, Vero C1008) was greater than 50 µM. For the same molecule, the EC90 ([2]; Zika virus, Vero C1008, Baseline response 0 %, Hill slope 1.211, Maximum measured 45.367 %, Maximum response 100 %, Minimum measured -3.491 %, P-gp concentration 500 nM, R squared 0.953, P-gp inhibitor CP100356) was greater than 50 µM.
CO[C@H]1C[C@H](n2ncc3c(C(=O)Nc4ccc5c(c4)CNC5)cc(Cl)cc32)C1 showed an EC50 ([1]; Dengue virus, Vero C1008) greater than 12.5 µM, an EC90 ([1]; Dengue virus, Vero C1008, Baseline response 0 %, Hill slope 0.569, Maximum measured 146.378 %, Maximum response 100 %, Minimum measured 74.589 %, R squared 0.043) greater than 12.5 µM and an EC50 ([2]; Zika virus, Vero C1008) of 3.1 µM. For the same molecule, the EC90 ([2]; Zika virus, Vero C1008) was 3.53 µM.
Work on N#Cc1ccc(-c2nc3c(C(=O)Nc4ccc5c(c4)CNC5)cc(F)cc3[nH]2)cc1 yielded an EC90 ([1]; Dengue virus, Vero C1008, Maximum measured 143.39 %, Minimum measured 94.915 %) greater than 50 µM, an EC90 ([1]; Dengue virus, Vero C1008, Maximum measured 155.678 %, Minimum measured 70.057 %) greater than 6.25 µM and an EC50 ([1]; vero c1008) greater than 50 µM. For the same molecule, the EC90 ([2]; Baseline response 0 %, Hill slope 0.2, Maximum measured 29.739 %, Maximum response 100 %, Minimum measured 4.071 %, P-gp concentration 500 nM, R squared 0.256, P-gp inhibitor CP100356) was greater than 50 µM, the EC50 ([2]; Zika virus, Vero C1008) was greater than 50 µM and the EC90 ([2]; Zika virus, Vero C1008, Baseline response 0 %, Hill slope 0.539, Maximum measured 18.428 %, Maximum response 100 %, Minimum measured 0.213 %, P-gp concentration 500 nM, R squared 0.888, P-gp inhibitor CP100356) was greater than 50 µM.
With O=C(NCCC1CC1)[C@H](Nc1ccc2c(c1)CNC2)c1cc(Cl)cc(C2CC2)c1 the EC50 ([1]; Dengue virus, Vero C1008) was greater than 12.5 µM, the EC90 ([1]; Dengue virus, Vero C1008, Baseline response 0 %, Hill slope -1.051, Maximum measured 118.853 %, Maximum response 100 %, Minimum measured 76.41 %, R squared 0.201) was greater than 12.5 µM and the EC50 ([2]; Zika virus, Vero C1008) was 5.72 µM. For the same molecule, the EC90 ([2]; Zika virus, Vero C1008, Baseline response 0 %, Hill slope 7.335, Maximum measured 65.758 %, Maximum response 100 %, Minimum measured 0.052 %, P-gp concentration 500 nM, R squared 0.996, P-gp inhibitor CP100356) was greater than 6.25 µM.
O=C(Nc1cc2c(c(C3=CCS(=O)(=O)CC3)c1)CNC2)c1cc(F)cc2[nH]ncc12 was tested, and the EC50 ([1]; Dengue virus, Vero C1008) was greater than 25 µM, the EC90 ([1]; Dengue virus, Vero C1008, Maximum measured 118.058 %, Minimum measured 98.99 %) was greater than 25 µM and the EC50 ([2]; Zika virus, Vero C1008) was greater than 50 µM. For the same molecule, the EC90 ([2]; Zika virus, Vero C1008, Maximum measured 6.141 %, Minimum measured -2.074 %, P-gp concentration 500 nM, P-gp inhibitor CP100356) was greater than 50 µM.
Molecule N#Cc1cc2c(cc1NC(=O)c1cc(F)cc3[nH]ncc13)CNC2 has an EC50 ([1]; Dengue virus, Vero C1008) greater than 25 µM, an EC90 ([1]; Dengue virus, Vero C1008, Maximum measured 167.339 %, Minimum measured 79.168 %) greater than 25 µM and an EC50 ([2]; Zika virus, Vero C1008) of 2.09 µM. It also gave an EC90 ([2]; Zika virus, Vero C1008, Baseline response 0 %, EC90 CI (lower) 2.64 uM, EC90 CI (upper) 7.54 uM, Hill slope 2.894, Maximum measured 123.396 %, Maximum response 100 %, Minimum measured 1.493 %, P-gp concentration 500 nM, R squared 0.93, P-gp inhibitor CP100356) of 4.46 µM.
O=C(Nc1ccc2c(c1)CNC2)c1cc(Cl)cc2[nH]c(-c3ccnn3C3CC3)nc12 showed an EC50 ([1]; Dengue virus, Vero C1008) greater than 6.25 µM, an EC90 ([1]; Dengue virus, Vero C1008, Baseline response 0 %, Hill slope 11.741, Maximum measured 109.967 %, Maximum response 100 %, Minimum measured 87.357 %, R squared 0.219) greater than 6.25 µM and an EC50 ([2]; Zika virus, Vero C1008) greater than 0.781 µM. It also gave an EC90 ([2]; Zika virus, Vero C1008, Baseline response 0 %, Hill slope 2.383, Maximum measured 38.126 %, Maximum response 100 %, Minimum measured 10.566 %, P-gp concentration 500 nM, R squared 0.88, P-gp inhibitor CP100356) greater than 0.781 µM.
